Results on twelve molecules are retold here after ChEMBL document CHEMBL4308904 (Bioorg Med Chem, 2019).

Assay [1] has as its target T1, Lysine-specific histone demethylase 1A (Homo sapiens, UniProt O60341).
Description: Inhibition of LSD1 (unknown origin) by fluorescence assay
The target of assay [2] is T1, Lysine-specific histone demethylase 1A. Put plainly: Inhibition of LSD1 (unknown origin).
Assay [3] deals with MDA-MB-231. Description: Induction of apoptosis in human MDA-MB-231 cells transfected with LSD1 siRNA assessed as increase in cleaved caspase-3 level at 8 uM after 24 hrs by Western blot analysis. The format is functional, cell-based. In general terms: Immunoblotting shows a protein as a band on a membrane.
Assay [4] concerns MDA-MB-231. Description: Induction of apoptosis in human MDA-MB-231 cells assessed as viable cells level at 8 uM after 24 hrs by Annexin V-FITC/propidium iodide staining-based flow cytometric analysis relative to control. Format: functional.
In assay [5] the test system is MDA-MB-231. Put plainly: Induction of apoptosis in human MDA-MB-231 cells transfected with LSD1 siRNA assessed as loss of mitochondrial membrane potential at 8 uM after 24 hrs by JC-1 staining-based flow cytometric analysis. Format: functional, cell-based. A general note: A flow cytometer gives signals particle by particle.
The subject of assay [6] is MDA-MB-231. Description: Effect on LSD1 protein levels in human MDA-MB-231 cells up to 8 uM by Western blot analysis. Format: functional, cell-based.
Assay [7] relates to MDA-MB-231. Put plainly: Induction of apoptosis in human MDA-MB-231 cells transfected with LSD1 siRNA assessed as late apoptosis level at 8 uM after 24 hrs by Annexin V-FITC/propidium iodide staining-based flow cytometric analysis relative to control. Format: functional.
Assay [8] concerns MDA-MB-231. Description: Antiproliferative activity against human MDA-MB-231 cells assessed as reduction in EdU incorporation at 8 uM after 24 hrs by Hoechst 33342 staining-based confocal laser scanning microscopic analysis. Format: functional, cell-based.
The test system of assay [9] is MDA-MB-231. Description: Induction of apoptosis in human MDA-MB-231 cells transfected with LSD1 siRNA assessed as necrosis cells level at 8 uM after 24 hrs by Annexin V-FITC/propidium iodide staining-based flow cytometric analysis relative to control. Format: functional.
Assay [10] deals with T1, Lysine-specific histone demethylase 1A. Description: Inhibition of LSD1 in human MDA-MB-231 cells assessed as increase in H3K4me2 methylation by Western blot analysis. The format is cell-based.
In assay [11] the test system is MDA-MB-231. Description: Induction of apoptosis in human MDA-MB-231 cells transfected with LSD1 siRNA assessed as increase in cleaved caspase-9 level at 8 uM after 24 hrs by Western blot analysis. The format is functional, cell-based.
Assay [12] deals with MDA-MB-231. Put plainly: Induction of apoptosis in human MDA-MB-231 cells transfected with LSD1 siRNA assessed as increase in BAX/Bcl-2 protein ratio at 8 uM after 24 hrs by Western blot analysis. Format: functional, cell-based.
The test system of assay [13] is MDA-MB-231. Description: Induction of apoptosis in human MDA-MB-231 cells assessed as necrosis cells level at 8 uM after 24 hrs by Annexin V-FITC/propidium iodide staining-based flow cytometric analysis relative to control. The format is functional.
For assay [14], the target named is T1, Lysine-specific histone demethylase 1A. Put plainly: Inhibition of LSD1 in human MDA-MB-231 cells assessed as increase in H3K4me1 methylation by Western blot analysis. The format is cell-based.
In assay [15] the test system is MDA-MB-231. Put plainly: Induction of apoptosis in human MDA-MB-231 cells transfected with LSD1 siRNA assessed as increase in cleaved PARP level at 8 uM after 24 hrs by Western blot analysis. Format: functional, cell-based.
Assay [16] concerns MDA-MB-231. Description: Induction of apoptosis in human MDA-MB-231 cells transfected with LSD1 siRNA assessed as chromatin condensation at 8 uM after 24 hrs by Hoechst 33342 staining-based confocal laser scanning microscopic analysis. The format is functional, cell-based.
Assay [17] has as its system MDA-MB-231. Description: Induction of apoptosis in human MDA-MB-231 cells assessed as early apoptosis cells level at 8 uM after 24 hrs by Annexin V-FITC/propidium iodide staining-based flow cytometric analysis relative to control. The format is functional.
Assay [18] relates to MDA-MB-231. Put plainly: Induction of apoptosis in human MDA-MB-231 cells assessed as loss of mitochondrial membrane potential at 8 uM after 24 hrs by JC-1 staining-based flow cytometric analysis. The format is functional, cell-based.
The target of assay [19] is Lysine-specific demethylase 5A (Homo sapiens) (UniProt P29375). Put plainly: Inhibition of JARID1 in human MDA-MB-231 cells assessed as effect on H3K4me3 methylation by Western blot analysis. Format: cell-based.
The test system of assay [20] is MDA-MB-231. Description: Inhibition of colony formation in human MDA-MB-231 cells transfected with LSD1 siRNA. Format: functional, cell-based.
In assay [21] the test system is MDA-MB-231. Put plainly: Antiproliferative activity against human MDA-MB-231 cells transfected with NC siRNA after 24 hrs by MTT assay. The format is functional, cell-based. For orientation: Tetrazolium dyes change colour on reduction, which living cells bring about.
In assay [22] the test system is MDA-MB-231. Put plainly: Induction of apoptosis in human MDA-MB-231 cells transfected with LSD1 siRNA assessed as early apoptosis cells level at 8 uM after 24 hrs by Annexin V-FITC/propidium iodide staining-based flow cytometric analysis relative to control. The format is functional.
Assay [23] relates to MDA-MB-231. Description: Induction of apoptosis in human MDA-MB-231 cells assessed as increase in BAX/Bcl-2 protein ratio at 8 uM after 24 hrs by Western blot analysis. Format: functional, cell-based.
Assay [24] concerns MDA-MB-231. Put plainly: Induction of apoptosis in human MDA-MB-231 cells transfected with LSD1 siRNA assessed as increase in cleaved caspase-7 level at 8 uM after 24 hrs by Western blot analysis. The format is functional, cell-based.
The subject of assay [25] is MDA-MB-231. Put plainly: Induction of apoptosis in human MDA-MB-231 cells transfected with LSD1 siRNA assessed as viable cells level at 8 uM after 24 hrs by Annexin V-FITC/propidium iodide staining-based flow cytometric analysis relative to control. Format: functional.
The subject of assay [26] is MDA-MB-231. Description: Induction of apoptosis in human MDA-MB-231 cells transfected with LSD1 siRNA assessed as chromatinorrhexis at 8 uM after 24 hrs by Hoechst 33342 staining-based confocal laser scanning microscopic analysis. Format: functional, cell-based.
In assay [27] the target is T1, Lysine-specific histone demethylase 1A. Put plainly: Competitive inhibition of LSD1 (unknown origin) using H3Kme2 as substrate by Lineweaver-Burk plot analysis.
Assay [28] shares this target. Put plainly: Inhibition of LSD1 in human MDA-MB-231 cells assessed as increase in H3K9me2 methylation by Western blot analysis. The format is cell-based.
The test system of assay [29] is MDA-MB-231. Description: Antiproliferative activity against human MDA-MB-231 cells transfected with LSD1 siRNA after 24 hrs by MTT assay. The format is functional, cell-based.
Assay [30] deals with MDA-MB-231. Description: Antiproliferative activity against human MDA-MB-231 cells transfected with LSD1 siRNA assessed as reduction in EdU incorporation at 8 uM after 24 hrs by Hoechst 33342 staining-based confocal laser scanning microscopic analysis. The format is functional, cell-based.
Assay [31] deals with MDA-MB-231. Put plainly: Induction of apoptosis in human MDA-MB-231 cells assessed as late apoptosis level at 8 uM after 24 hrs by Annexin V-FITC/propidium iodide staining-based flow cytometric analysis relative to control. Format: functional.

Activity calls are given as the source filed them. No cut-off for these calls is given here.

Sequence of Lysine-specific demethylase 5A (Homo sapiens) (P29375 whole entry): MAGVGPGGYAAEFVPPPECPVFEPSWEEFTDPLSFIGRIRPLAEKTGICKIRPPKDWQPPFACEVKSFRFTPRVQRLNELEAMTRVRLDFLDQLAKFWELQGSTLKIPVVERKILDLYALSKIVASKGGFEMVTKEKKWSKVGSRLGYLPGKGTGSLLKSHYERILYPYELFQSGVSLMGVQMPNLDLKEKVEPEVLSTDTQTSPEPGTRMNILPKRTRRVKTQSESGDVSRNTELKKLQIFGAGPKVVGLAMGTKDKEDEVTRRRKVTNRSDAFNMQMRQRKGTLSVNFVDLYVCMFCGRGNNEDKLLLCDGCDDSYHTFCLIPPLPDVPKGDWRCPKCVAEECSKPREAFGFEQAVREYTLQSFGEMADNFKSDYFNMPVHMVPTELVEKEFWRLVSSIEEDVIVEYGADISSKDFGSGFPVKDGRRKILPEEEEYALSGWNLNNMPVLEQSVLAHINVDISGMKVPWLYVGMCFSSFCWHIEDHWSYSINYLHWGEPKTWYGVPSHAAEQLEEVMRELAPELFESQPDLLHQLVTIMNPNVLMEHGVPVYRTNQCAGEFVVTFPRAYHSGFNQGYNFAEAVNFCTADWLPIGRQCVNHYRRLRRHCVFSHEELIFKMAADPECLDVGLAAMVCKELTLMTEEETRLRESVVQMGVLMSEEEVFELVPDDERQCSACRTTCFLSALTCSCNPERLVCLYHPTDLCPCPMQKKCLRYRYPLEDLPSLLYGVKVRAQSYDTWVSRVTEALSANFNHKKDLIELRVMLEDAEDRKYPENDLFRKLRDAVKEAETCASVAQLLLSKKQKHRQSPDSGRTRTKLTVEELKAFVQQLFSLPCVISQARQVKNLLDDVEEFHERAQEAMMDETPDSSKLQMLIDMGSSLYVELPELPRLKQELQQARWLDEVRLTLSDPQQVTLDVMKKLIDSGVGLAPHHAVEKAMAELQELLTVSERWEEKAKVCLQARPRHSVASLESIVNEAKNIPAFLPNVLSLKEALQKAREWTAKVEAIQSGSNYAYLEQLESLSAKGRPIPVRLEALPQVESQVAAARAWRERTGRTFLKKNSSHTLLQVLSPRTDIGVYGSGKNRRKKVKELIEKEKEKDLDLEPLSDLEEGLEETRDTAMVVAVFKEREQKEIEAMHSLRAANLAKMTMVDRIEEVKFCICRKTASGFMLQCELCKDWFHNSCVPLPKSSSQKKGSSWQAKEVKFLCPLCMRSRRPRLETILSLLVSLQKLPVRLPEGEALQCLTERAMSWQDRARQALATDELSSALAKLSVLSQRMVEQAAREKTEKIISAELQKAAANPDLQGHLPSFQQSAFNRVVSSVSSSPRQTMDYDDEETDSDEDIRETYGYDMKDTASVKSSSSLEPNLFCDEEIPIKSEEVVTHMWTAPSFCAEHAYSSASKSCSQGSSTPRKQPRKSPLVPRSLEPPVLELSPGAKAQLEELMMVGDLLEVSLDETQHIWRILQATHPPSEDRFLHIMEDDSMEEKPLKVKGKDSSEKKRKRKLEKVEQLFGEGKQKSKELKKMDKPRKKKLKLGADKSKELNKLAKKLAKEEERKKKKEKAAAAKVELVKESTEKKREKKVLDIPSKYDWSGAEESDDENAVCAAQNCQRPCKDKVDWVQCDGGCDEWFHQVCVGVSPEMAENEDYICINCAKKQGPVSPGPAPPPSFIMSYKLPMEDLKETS

In general, IC50 refers to the point on the concentration scale where inhibition reaches its midpoint. The low end stands for higher potency, the high end for lower potency. Consider `COc1ccc([C@@H]2CC(=O)c3c(O)cc(O[C@@H]4O[C@H](CO)[C@@H](O)[C@H](O)[C@H]4O)cc3O2)cc1O`, for which 4.74 µM corresponded to half-maximal inhibition in assay [1] (IC50).

For the molecule `COc1c(O[C@@H]2O[C@H](C(=O)O)[C@@H](O)[C@H](O)[C@H]2O)cc(O)c2c(=O)cc(-c3ccccc3)oc12`, the IC50 in assay [2] is 2.98 µM.

For `COc1ccc(-c2cc(=O)c3c(O)cc(O[C@@H]4O[C@H](CO)[C@@H](O)[C@H](O)[C@H]4O)cc3o2)cc1O`, the IC50 in [1] was found to be 21.8 µM.

In turn, `COc1ccc(-c2oc3c(CC=C(C)C)c(O)cc(O)c3c(=O)c2O[C@@H]2O[C@@H](C)[C@H](O)[C@@H](O)[C@H]2O)cc1` yielded an IC50 in assay [1] of 16.7 µM.

`O=c1cc(-c2ccccc2)oc2cc(O)c(O)c(O)c12` [BAICALEIN] returned an IC50 in assay [2] of 12.5 µM.

`O=C(O)[C@H]1O[C@@H](Oc2cc3oc(-c4ccccc4)cc(=O)c3c(O)c2O)[C@H](O)[C@@H](O)[C@@H]1O` [BAICALIN] had an IC50 in assay [2] of 3.55 µM.

As to `COc1ccc([C@@H]2CC(=O)c3c(O)cc(O)cc3O2)cc1O` [HESPERETIN], the IC50 in assay [1] came out at 78.8 µM.

In assay [1], `COc1ccc([C@@H]2CC(=O)c3c(O)cc(O[C@@H]4O[C@H](CO[C@@H]5O[C@@H](C)[C@H](O)[C@@H](O)[C@H]5O)[C@@H](O)[C@H](O)[C@H]4O)cc3O2)cc1O` [HESPERIDIN] registered an IC50 of 19.2 µM.

As to `COc1ccc(-c2oc3c(CC=C(C)C)c(O)cc(O)c3c(=O)c2O)cc1` [ICARITIN], the IC50 in assay [1] worked out at 64.5 µM.

In general, Ki refers to a measure of affinity in units of concentration, obtained from inhibition or displacement. Regarding `O=c1c(O[C@@H]2O[C@H](CO)[C@@H](O)[C@H](O)[C@H]2O)c(-c2ccc(O)c(O)c2)oc2cc(O)cc(O)c12` [ISOQUERCETIN], the result with MDA-MB-231 [3], in the assay on MDA-MB-231 [5], with MDA-MB-231 [8], with MDA-MB-231 [11], in the assay with MDA-MB-231 [12] and in the assay with MDA-MB-231 [15] was Active. Also, the outcome in the assay on MDA-MB-231 [16], in the assay with MDA-MB-231 [18], with MDA-MB-231 [21], with MDA-MB-231 [23], in the assay with MDA-MB-231 [24] and in the assay with MDA-MB-231 [26] was Active. For the same molecule, the result in the assay with MDA-MB-231 [29] and with MDA-MB-231 [30] was Active. Moreover, the Activity in the assay on MDA-MB-231 [4] came to 82.6%; in the assay on MDA-MB-231 [7], 38.9%; in the assay on MDA-MB-231 [9] it was 1.5%; with MDA-MB-231 [13], 2.6%; in the assay on MDA-MB-231 [17] it was 1%; in the assay with MDA-MB-231 [22], 3.5%. Also, the Activity with MDA-MB-231 [25] is on record as 56.1%; in the assay on MDA-MB-231 [31] it was 10.7%. For the same molecule, the result in the assay with MDA-MB-231 [6] was inactive. For the same molecule, the inhibition result (in assay [10]; in [14]; with MDA-MB-231 [20]; in [28]) was “Active” throughout. For the same molecule, the inhibition result in assay [19] was “inactive”. Besides, 0.95 µM corresponded to half-maximal inhibition in assay [1] (IC50). The molecule also gave a Ki in assay [27] of 1 µM.

In assay [1], `O=c1c(O)c(-c2ccc(O)c(O)c2)oc2cc(O)cc(O)c12` [QUERCETIN] gave an IC50 of 1.26 µM.

Consider `C[C@@H]1O[C@@H](OC[C@H]2O[C@@H](Oc3c(-c4ccc(O)c(O)c4)oc4cc(O)cc(O)c4c3=O)[C@H](O)[C@@H](O)[C@@H]2O)[C@H](O)[C@H](O)[C@H]1O` [RUTIN], for which the IC50 in assay [1] was 2.16 µM.
